The text below walks through data of ChEMBL document CHEMBL4177649, “On-site reaction for PPARγ modification using a specific bifunctional ligand” (Bioorg Med Chem, 2017).

Calls of active or inactive are those of the source. The calls are words filed in the database; no cut-off is given here.

For assay [1], the target named is T1, Peroxisome proliferator-activated receptor gamma (Homo sapiens) (UniProt P37231).
T1 sequence (whole entry): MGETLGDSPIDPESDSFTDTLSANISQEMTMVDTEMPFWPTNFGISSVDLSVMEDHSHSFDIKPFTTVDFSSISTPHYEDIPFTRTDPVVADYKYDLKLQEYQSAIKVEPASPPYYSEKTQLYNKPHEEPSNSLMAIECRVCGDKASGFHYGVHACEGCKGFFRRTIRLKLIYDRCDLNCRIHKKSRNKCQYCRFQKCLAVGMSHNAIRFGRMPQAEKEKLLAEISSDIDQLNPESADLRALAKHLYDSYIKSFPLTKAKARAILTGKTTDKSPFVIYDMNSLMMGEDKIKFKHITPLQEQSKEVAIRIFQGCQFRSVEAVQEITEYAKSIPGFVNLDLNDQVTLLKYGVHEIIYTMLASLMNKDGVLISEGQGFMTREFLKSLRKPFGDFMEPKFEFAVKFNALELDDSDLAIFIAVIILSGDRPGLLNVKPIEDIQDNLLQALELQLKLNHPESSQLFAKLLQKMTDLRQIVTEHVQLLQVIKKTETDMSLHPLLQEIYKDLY
Description: Transactivation at human Gal4-fused PPARgamma LBD expressed in African green monkey COS7 cells by dual luciferase assay. The assay is classed as cell-based.

The target in assay [2] is T1, Peroxisome proliferator-activated receptor gamma (Homo sapiens). Description: Binding affinity to Gal4-fused PPARgamma LBD (unknown origin) expressed in Escherichia coli DH5alpha cell lysates in presence of ADIBO-fluorescein by SDS-PAGE analysis.
The target is the same in assay [3]. Description: Binding affinity to Gal4-fused PPARgamma LBD (unknown origin) expressed in Escherichia coli DH5alpha cell lysates at 4 equiv in presence of ADIBO-fluorescein by SDS-PAGE analysis.
In assay [4] the target is T2, Peroxisome proliferator-activated receptor gamma (Mus musculus) (UniProt P37238).
T2 sequence (whole entry): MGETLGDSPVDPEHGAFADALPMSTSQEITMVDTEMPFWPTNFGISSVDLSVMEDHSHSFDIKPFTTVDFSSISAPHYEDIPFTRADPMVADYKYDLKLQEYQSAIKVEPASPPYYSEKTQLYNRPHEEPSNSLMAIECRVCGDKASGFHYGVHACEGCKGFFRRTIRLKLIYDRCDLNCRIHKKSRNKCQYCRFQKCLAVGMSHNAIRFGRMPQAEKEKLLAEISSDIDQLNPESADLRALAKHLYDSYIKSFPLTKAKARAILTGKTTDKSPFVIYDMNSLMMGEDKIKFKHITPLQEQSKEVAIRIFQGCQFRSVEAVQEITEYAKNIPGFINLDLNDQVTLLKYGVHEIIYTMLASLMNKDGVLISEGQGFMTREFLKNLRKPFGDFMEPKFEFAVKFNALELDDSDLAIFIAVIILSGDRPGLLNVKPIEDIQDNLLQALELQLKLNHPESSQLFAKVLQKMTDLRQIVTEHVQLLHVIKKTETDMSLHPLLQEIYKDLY
Description: Binding affinity to Gal4-fused PPARgamma LBD in mouse 3T3-L1 cells assessed in presence of ADIBO-fluorescein. The assay is classed as cell-based.

The target in assay [5] is T1, Peroxisome proliferator-activated receptor gamma (Homo sapiens). Description: Binding affinity to human Gal4-fused PPARgamma LBD expressed in African green monkey COS7 cells assessed in presence of ADIBO-fluorescein. It is filed as cell-based.
For assay [6] the target is unchanged. Description: Binding affinity to Gal4-fused human PPARgamma LBD (204 to 477 residues) assessed as labeling efficiency at 100 uM after 12 hrs by ESI-mass analysis.
Assay [7] shares this target. Description: Binding affinity to Gal4-fused PPARgamma LBD (unknown origin) expressed in Escherichia coli DH5alpha cell lysates at 4 equiv in presence of ADIBO-fluorescein by silver staining method.
Assay [8] shares this target. Description: Binding affinity to Gal4-fused human PPARgamma LBD (204 to 477 residues) assessed as covalent modification at 100 uM after 24 hrs by ESI-mass analysis.
Assay [9] shares this target. Description: Binding affinity to Gal4-fused PPARgamma LBD (unknown origin) expressed in Escherichia coli DH5alpha cell lysates at 4 equiv in presence of ADIBO-fluorescein by Coomassie Brilliant Blue staining method.
Assay [10] has the same target. Description: Binding affinity to Gal4-fused human PPARgamma LBD (204 to 477 residues) assessed as covalent modification at 100 uM after 24 hrs in presence of methyl N-((3E,5E)-16-azido-2-oxohexadeca-3,5-dien-1-yl)-N-tosylglycinate by ESI-mass analysis.
For assay [11] the target is unchanged. Description: Binding affinity to Gal4-fused human PPARgamma LBD (204 to 477 residues) assessed as covalent modification at 100 uM after 24 hrs in presence of methyl N-((3E,5E)-2-oxohexadeca-3,5-dien-1-yl)-N-tosylglycinate by ESI-mass analysis.

For `CCCCCCCCCC/C=C/C=C/C(=O)CN(CC(=O)OC)S(=O)(=O)c1ccc(C)cc1`, the Activity entry in [1] is “Dose-dependent effect”.

As for `COC(=O)CN(CC(=O)/C=C/C=C/CCCCCCCCCCN=[N+]=[N-])S(=O)(=O)c1ccc(C)cc1`, the Activity result in [2] and in assay [1] was “Dose-dependent effect” in each case. For the same molecule, the result in assay [3], in assay [6], in assay [7], in [8] and in assay [9] was Active. The result in assay [4] and in assay [5] was inactive.

For `O=C(O)c1cc(NC(=S)NCCCCCC(=O)N2Cc3ccccc3C#Cc3ccccc32)ccc1-c1c2ccc(=O)cc-2oc2cc(O)ccc12`, the outcome in [9] was Active.

Turning to `Cc1ccc(S(=O)(=O)N(CC(=O)O)CC(=O)/C=C/C=C/CCCCCCCCCCn2nnc3c2-c2ccccc2CN(C(=O)CCCCCNC(=O)C(F)(F)F)c2ccccc2-3)cc1`, the outcome in assay [6] was Active.

On to `O=C(CCCCCNC(=O)C(F)(F)F)N1Cc2ccccc2C#Cc2ccccc21`, for which, in [10], the outcome was Active. Moreover, the outcome in assay [11] was inactive.
